Reference: ChEMBL document CHEMBL1158293, “Isolation and structure of prorocentrolide B, a fast-acting toxin from Prorocentrum maculosum” (J Nat Prod, 1996)

Test system: Mus musculus
Test: Toxicity in ip dosed CD1 mouse
Type: organism-based
Conditions: in vivo

Q: C=C1CCC2OC(CC3=CC4/C(C)=C/CC(C)CC(/C=C/C(O)C5CC(O)C(O)C(CCC(O)/C=C/C(C)=C/CCC6=NCCC(C3)C64C)O5)OC(=O)CC3OC(C(O)CC1C)C(O)C3OS(=O)(=O)O)C(O)CC2O (stereo unspecified) [PROROCENTROLIDE B] was tested. Which Activity did it give?
A: Toxic
